US3959300A, “Novel indolobenzazepine derivatives, useful as tranquilizers” (priority 1974, dated 1976)
Where two headings read alike, the source gives them in different places.

What was measured:
Water solubility = type: physicochemical; settings: methanesulfonate salt
locomotor activity = assay: Mouse Screen (decrease in locomotor activity); type: in vivo; settings: Mus musculus, po, read-out: Screen (mouse) MED
Excerpt: (§1) Results given in: mg/kg po/mouse
Mouse Screen: The minimal effective dose (MED) is the lowest oral dose producing an obvious decrease in locomotor activity, using observational techniques. Groups of 3 mice are given decreasing oral doses at 0.5 log intervals (300, 100, 30 . . . etc.) until no behavioral effects are evident. Decrease of locomotor activity is indicative of general central nervous system depressant activity.

[1] = test system: Conditioned Avoidance Response; assay: Dog Conditioned Avoidance Response (C.A.R.); type: in vivo; settings: po; for ED50: Canis lupus familiaris, read-out: C.A.R. (dog) ED50
Procedure: Results given in: mg/kg po/dog
Dog Conditioned Avoidance Response: Dogs are trained to raise a forelimb when presented with a conditioned stimulus (light) in order to avoid an electric shock. Blocks of 10 trials are given to groups of four dogs during a pretreatment period and at 1, 2, and 4 hours after oral administration of test compound. The ED50 values are calculated as the dose causing 50% of the animals to show five or more incorrect responses. Blocking of the C.A.R. at non-toxic doses appears to correlate with major tranquilizer activity in man.

[2] = test system: amphetamine hyperactivity; assay: Mouse Anti-Amphetamine Activity (A.A.); type: in vivo; settings: po, read-out: A.A. (mouse) ED50
Procedure: as §1
Mouse Anti-Amphetamine Activity: Groups of 5 mice are given d-amphetamine sulfate 5 mg/kg sc 1 hour after oral administration of graded doses of test compound. The mice are placed in photocell activity units immediately after amphetamine administration and locomotor activity is recorded for 60 minutes. The ED50 is calculated as the dose causing a 50% reduction in locomotor activity relative to the activity of the amphetamine-treated control mice. Amphetamine antagonism at non-toxic doses appears to correlate with major tranquilizer activity in man.

[3] = test system: Conditioned Avoidance Response; assay: Mouse Conditioned Avoidance Response (C.A.R.); type: in vivo; settings: po, read-out: C.A.R. (mouse) ED50
Procedure: (§2) Results given in: mg/kg po/mouse mg/kg po/rat
(§3) Mouse and Rat Conditioned Avoidance Response: Mice and rats are trained to jump out of a pit onto a ledge to avoid shock when presented with a light and sound conditioned stimulus. The animals are tested 1, 2, and 4 hours after administration of the test compound. Three to 4 dose levels and groups of 4-8 animals/dose are used. The ED50 is the dose producing a block of the C.A.R. in 50% of the animals. Blocking of the C.A.R. at non-toxic doses appears to correlate with major tranquilizer activity in man.

[4] = test system: approach-avoidance ("conflict") situation; assay: Rat Conflict (Approach-Avoidance) Test; type: in vivo; settings: for minimal effective dose: read-out: Conflict (rat) MED
Procedure: Results given in: mg/kg po/rat
Rat Conflict (Approach-Avoidance) Test: Food deprived rats are trained to pass from one compartment to an adjacent one to obtain food. The training consists of three exposures to the test situation on day one of the experiment. The rats are given limited (1-2 hr) free access to food in their home cages on day one and are then food deprived for at least 18 hours. On day two of the experiment, the rats are given a control exposure to the test situation followed by a second exposure after 1/2 to 1 hour in which they are shocked after crossing and eating. Groups of 6-8 rats are then dosed orally with solvent or test compound and then reexposed to the test situation after 1 or 2 hours.
This effect is dose-related (and the MED is the minimum dose at which this effect is obtained); rats dosed with solvent only consistently show a high level of fear as evidenced by decreased mobility and absence of feeding when placed in the test situation after receiving a shock.

approach-behavior = assay: Rhesus Monkey Approach Effects; type: in vivo; settings: po; for minimal effective dose: Macaca mulatta, read-out: Approach (monkey) MED
Procedure: (§4) Results given in: mg/kg po/monkey
Rhesus Monkey Approach Effects: Compounds are administered orally to groups of six rhesus monkeys. The behavior of the animals is then evaluated by observational means. […] The MED is the oral dose at which the animals show signs of decreased fear.

[5] = test system: Conditioned Avoidance Response; assay: Rat Conditioned Avoidance Response (C.A.R.); type: in vivo; settings: po, read-out: C.A.R. (rat) ED50
Procedure: as §2, §3

taming = assay: Rhesus Monkey Taming Effects; type: in vivo; settings: po; for minimal effective dose: Macaca mulatta, read-out: Taming (monkey) MED
Procedure: as §4
Rhesus Monkey Taming Effects: Compounds are administered orally to groups of six rhesus monkeys. The behavior of the animals is then evaluated by observational means. Taming effects are determined by the ability of the observer to approach and touch the monkey. Compounds with major tranquilizer activity in man can produce a state of passive tameness in the rhesus monkey wherein it can be touched without provoking any of the threatening or aggressive behavior seen in the normal animal. The MED is the minimal oral dose at which some taming effect can be observed.

Compound: CS(=O)(=O)O.c1ccc2c(c1)CCc1cccc3c4c(n-2c13)CCN(CC1CC1)C4 [3-(cyclopropylmethyl)-1,2,3,4,8,9-hexahydropyrido[4',3':2,3]indolo[1,7-ab][1]benzazepine methanesulfonate]
- solubility (Water solubility): > 500 mg/mL

Compound: c1ccc2c(c1)CCc1cccc3c4c(n-2c13)CCN(CC1CC1)C4 [No. 3, 3-(cyclopropylmethyl)-1,2,3,4,8,9-hexahydropyrido[4',3':2,3]indolo[1,7-ab][1]benzazepine]
- minimal effective dose (locomotor activity): 30 to 100 mg/kg
- ED50 ([1]; dog, 1, 2, and 4 hours after administration): > 20 mg/kg
- ED50 ([2]; mouse, d-amphetamine sulfate 5 mg/kg sc 1 hour after compound, 60 minutes recording): 6 mg/kg
- ED50 ([3]; mouse, tested 1, 2, and 4 hours after administration): 20 mg/kg
- minimal effective dose ([4]; po, rat, reexposed after 1 or 2 hours): 10 to 20 mg/kg
- minimal effective dose (approach-behavior; rhesus monkey): 1 to 3 mg/kg
- ED50 ([5]; rat, tested 1, 2, and 4 hours after administration): 40 mg/kg
- minimal effective dose (taming; rhesus monkey): 3 to 10 mg/kg

Compound: CN(C)CCCN1c2ccccc2Sc2ccc(Cl)cc21 [chlorpromazine, reference compound]
- minimal effective dose (locomotor activity): 3 to 10 mg/kg
- ED50 ([1]; 4 h): 6 mg/kg
- ED50 ([2]; Mus musculus, 1 h): 5 mg/kg
- ED50 ([3]; Mus musculus, 4 h): 5 mg/kg
- Conflict (rat) MED, symbol ([4]; po, rat): I
- Approach (monkey) MED, symbol (approach-behavior; rhesus monkey): I
- ED50 ([5]; Rattus norvegicus, 4 h): 10 mg/kg
- minimal effective dose (taming): 10 to 30 mg/kg

Compound: CN1C(=O)CN=C(c2ccccc2)c2cc(Cl)ccc21 [diazepam, reference compound]
- minimal effective dose (locomotor activity): 3 to 10 mg/kg
- C.A.R. (dog) ED50, symbol ([1]; dog): I
- minimal effective dose ([4]; Rattus norvegicus, po): 3 to 10 mg/kg
- decreased fear in the test animals, in words ([4]; rats cross to obtain food despite earlier shock, dose-related): apparent decreased fear in the test animals
- minimal effective dose (approach-behavior): 3 to 10 mg/kg
- Taming (monkey) MED, symbol (taming; rhesus monkey): I
